Test results published in patent publication US20120309705A1, “NOVEL 3'-DEOXY-3'-METHYLIDENE-BETA-L-NUCLEOSIDES” (priority 2009, published 2012).

Columns and labels:
HBV = assay: Anti-HBV activity in HepG2.2.15 cells (HBV DNA, TaqMan PCR); assay type: cell-based; conditions: Hepatitis B virus, 144 h, 6 days, HBV DNA in supernatant, read-out: Anti-HBV activity IC50 (HepG 2215)
Procedure: Human hepatoma cells with HBV (HepG2.2.15 cells) were used for the analyzing compounds of the invention for their HBV inhibitory activities. HepG2.2.15 cells were plated in 96-well microtiter plates. Only the interior wells were utilized to reduce “edge effects” observed during cell culture; the exterior wells were filled with complete medium to help minimize sample evaporation. After 16-24 hours the confluent monolayer of HepG2.2.15 cells were washed and the medium was replaced with complete medium containing various concentrations of a test compound in triplicate (compounds tested at 6 concentrations). Lamivudine was used as the positive control, while media alone was added to cells as a negative control. Three days later the culture medium was replaced with fresh medium containing the appropriately diluted drug. Six days following the initial administration of the test compound, the cell culture supernatant was collected, treated with pronase and then used in a real-time quantitative TaqMan PCR assay. The PCR-amplified HBV DNA was detected in real-time by monitoring increases in fluorescence signals that result from the exonucleolytic degradation of a quenched fluorescent probe molecule that hybridized to the amplified HBV DNA. For each PCR amplification, a standard curve was simultaneously generated using dilutions of purified HBV DNA. Anti-HBV activity was calculated from the reduction in HBV DNA levels. CellTiter-96 kit (Promega) is employed to measure cell viability in the same assay to confirm that the inhibition was not due to cytotoxicity in HepG 2 cells.

[1] = Cytotoxicity in HepG2 cells (MTT); assay type: cell-based; conditions: human
Procedure: HepG2 cells were seeded on 96-well plates at a density of 1×10^4 cells/well in 100 μl DMEM supplemented with 10% FBS, 100 U/ml penicillin/streptomycin and 2 mM L-glutamine. After 20 hours of incubation at 37° C. with 5% CO2, the medium was removed and replaced with fresh medium containing test compounds with the concentrations ranging 4.7-300 μM. The cells were incubated for 24 hours at 37° C. with 5% CO2. The medium was removed and replaced with 100 μl/well MTT (Sigma) in HBSS (0.5 mg/ml). After the incubation for 2 hours on gentle shake at 37° C., 100 μl/well of MTT lysis buffer was added to the wells and plates were covered and left over night to dissolve formazan crystals. Absorbance was measured at 570-630 nm in ELISA reader. The cytotoxicity was calculated based on the cell viability in comparison with the control.

HIV-1IIIB = assay: Anti-HIV activity in MT-4 cells (cytopathic effect reduction); assay type: cell-based; conditions: Human immunodeficiency virus 1, MT4, 144 h, 6 days post-infection
Procedure: MT-4 cells were used for analyzing compounds of the invention for their HIV inhibitory activities. On the day preceding the assay, the cells were split 1:2 to assure they were in an exponential growth phase at the time of infection. Total cell number and percent viability determinations were performed using a hemacytometer and trypan blue exclusion. Cell viability must be greater than 95% for the cells to be utilized in the assay. The cells were re-suspended at 1×10^5 cells/mL in tissue culture medium and added to control or drug-containing 96-well microtiter plates in a volume of 50 μL. The viruses used for this assay were HIV-1IIIB. For each assay, a pre-titered aliquot of virus was removed from the freezer (−80° C.) and allowed to thaw slowly to room temperature in a biological safety cabinet. The virus was re-suspended and diluted into tissue culture medium such that the amount of virus added to each well in a volume of 50 μL was the amount determined to give between 85 to 95% cell killing at 6 days post-infection. The multiplicity of infection of these assays was approximately 0.01 and the volume added to the well of the microtiter plates was 50 μL. At assay termination (6 days post-infection), 20-25 μL of MTS reagent 3-(4,5-dimethylthiazol-2-yl)-5-(3-carboxymethoxyphenyl)-2-(4-sulfophenyl)-2H-tetrazolium (MTS; CellTiter 96 Reagent, Promega) was added per well and the microtiter plates were incubated for 4-6 hrs at 37° C., 5% CO2. Adhesive plate sealers were used in place of the lids, the sealed plate is inverted several times to mix the soluble formazan product. The plate was read spectrophotometrically at 490/650 nm with plate reader. Anti-HIV activity was calculated based on the Cytopathic Effect Reduction (%).

[2] = Cytotoxicity in MT-4 cells (MTS); assay type: cell-based; conditions: human
Procedure: MT-4 cells was added to 96-well microtiter plates in a volume of 50 μl (1×10^5 cells/mL). The cell medium contains the test compounds with the concentrations ranging 0.01 μM-31 μM. The cells were incubated at 37° C. with 5% CO2. At assay termination (6 days), 20-25 μL of MTS reagent is added per well and the microtiter plates are then incubated for 4-6 hrs at 37° C. with 5% CO2. The plate was read spectrophotometrically to assess cell viability. The cytotoxicity was calculated based on the cell viability in comparison with the control.

[3] = target: rtN236T in HBV polymerase (Hepatitis B virus genotype D subtype ayw, UniProt P03156, N571T); conditions: cited from earlier work
Sequence of rtN236T in HBV polymerase (P03156 whole entry N571T): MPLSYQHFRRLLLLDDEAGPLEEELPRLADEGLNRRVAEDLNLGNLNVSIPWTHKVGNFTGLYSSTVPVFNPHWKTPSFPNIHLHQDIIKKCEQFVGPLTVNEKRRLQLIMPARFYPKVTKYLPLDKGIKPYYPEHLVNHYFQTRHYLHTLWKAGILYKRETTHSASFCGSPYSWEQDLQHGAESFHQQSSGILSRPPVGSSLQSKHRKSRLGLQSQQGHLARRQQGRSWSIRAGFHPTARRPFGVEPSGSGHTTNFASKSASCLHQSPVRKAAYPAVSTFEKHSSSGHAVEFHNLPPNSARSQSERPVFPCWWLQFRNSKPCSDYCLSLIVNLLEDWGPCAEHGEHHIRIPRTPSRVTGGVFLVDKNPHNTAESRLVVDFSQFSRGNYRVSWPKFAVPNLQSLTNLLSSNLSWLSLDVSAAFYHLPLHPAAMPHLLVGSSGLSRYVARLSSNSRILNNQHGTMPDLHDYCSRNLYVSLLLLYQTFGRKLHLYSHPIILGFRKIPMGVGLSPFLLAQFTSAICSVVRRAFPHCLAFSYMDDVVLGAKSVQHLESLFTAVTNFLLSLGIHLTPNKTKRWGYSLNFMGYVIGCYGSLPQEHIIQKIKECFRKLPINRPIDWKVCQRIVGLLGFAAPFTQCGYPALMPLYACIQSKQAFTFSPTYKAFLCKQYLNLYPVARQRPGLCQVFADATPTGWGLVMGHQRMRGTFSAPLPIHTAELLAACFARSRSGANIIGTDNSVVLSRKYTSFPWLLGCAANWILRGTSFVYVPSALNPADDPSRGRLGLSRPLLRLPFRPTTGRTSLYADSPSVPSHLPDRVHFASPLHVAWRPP

mutation rtA181V = mutation rtA181V (Hepatitis B virus genotype D subtype ayw, UniProt P03156, A516V); conditions: cited from earlier work
Sequence of mutation rtA181V (P03156 whole entry A516V): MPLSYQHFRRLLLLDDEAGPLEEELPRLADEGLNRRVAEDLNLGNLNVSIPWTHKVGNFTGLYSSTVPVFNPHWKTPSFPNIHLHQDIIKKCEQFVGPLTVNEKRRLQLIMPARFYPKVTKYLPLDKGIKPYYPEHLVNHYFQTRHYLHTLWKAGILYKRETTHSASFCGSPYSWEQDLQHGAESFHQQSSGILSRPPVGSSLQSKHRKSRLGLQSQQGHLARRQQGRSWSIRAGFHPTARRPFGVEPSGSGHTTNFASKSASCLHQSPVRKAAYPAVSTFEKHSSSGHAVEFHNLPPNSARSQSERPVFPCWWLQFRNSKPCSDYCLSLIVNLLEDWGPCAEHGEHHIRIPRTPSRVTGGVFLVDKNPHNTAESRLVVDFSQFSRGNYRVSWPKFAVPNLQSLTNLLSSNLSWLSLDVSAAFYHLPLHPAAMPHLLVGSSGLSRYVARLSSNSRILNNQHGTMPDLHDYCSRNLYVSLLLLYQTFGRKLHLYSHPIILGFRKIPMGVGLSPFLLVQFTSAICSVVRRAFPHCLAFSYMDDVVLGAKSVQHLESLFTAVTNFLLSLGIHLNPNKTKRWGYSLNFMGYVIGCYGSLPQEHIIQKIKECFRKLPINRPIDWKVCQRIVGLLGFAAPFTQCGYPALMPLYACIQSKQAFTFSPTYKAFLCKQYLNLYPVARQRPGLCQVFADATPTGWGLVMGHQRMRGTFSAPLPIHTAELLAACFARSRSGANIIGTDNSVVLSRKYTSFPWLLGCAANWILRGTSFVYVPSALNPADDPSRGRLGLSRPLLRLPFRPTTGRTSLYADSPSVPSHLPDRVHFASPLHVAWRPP

[4] = tested on: mutants resistant to lamivudine; conditions: cited from earlier work

| IC50 (HIV-1IIIB) [µM] | SMILES | IC50 (HBV) [µM] | CC50 at 24 h [1] [µM] | CC50 at 6 days [2] [µM] | loss of susceptibility [3] | activity loss (mutation rtA181V) | cross-resistance of lamivudine-resistant mutants [4] |
| --- | --- | --- | --- | --- | --- | --- | --- |
| > 32 | C=C1[C@H](CO)O[C@H](n2ccc(N)nc2=O)[C@H]1O [Compound 17, 1-(3-deoxy-3-methylidene-β-L-pentoribofuranosyl)cytosine] |  | > 300 | > 32 |  |  |  |
|  | C=C1C[C@@H](n2cc(F)c(N)nc2=O)O[C@H]1CO [Compound 66, 1-(2,3-dideoxyl-3-methylidene-β-L-pentofuranosyl)-5-fluorocytosine] | < 1 | > 300 |  |  |  |  |
|  | C=C1C[C@@H](n2cnc3c(N)ncnc32)O[C@H]1CO [Compound 71, 9-(2,3-dideoxyl-3-methylidene-β-L-pentofuranosyl)adenine] | < 1 | > 300 |  |  |  |  |
| > 32 | C=C1[C@H](CO)O[C@H](n2ccc(N)nc2=O)[C@H]1F [Compound 37, 1-[2-deoxy-2-(S)-fluoro-3-deoxy-3-methylidene-β-L-pentofuranosyl]cytosine] |  | > 300 | > 32 |  |  |  |
|  | Nc1ncnc2c1ncn2CCOCP(=O)(O)O [adefovir] |  |  |  | about 10 fold | about 33 fold |  |
| > 32 | C=C1[C@H](CO)O[C@H](n2ccc(N)nc2=O)[C@@H]1O [Compound 28, 1-(3-deoxy-3-methylidene-β-L-arabinopentofuranosyl)cytosine] |  | > 300 | > 32 |  |  |  |
| > 32 | C=C1[C@H](CO)O[C@H](n2ccc(N)nc2=O)[C@@H]1F [Compound 47, 1-[2-deoxy-2-(R)-fluoro-3-deoxy-3-methylidene-β-L-pentofuranosyl]cytosine] |  | > 300 | > 32 |  |  |  |
|  | C=C1[C@H](CO)[C@@H](O)C[C@@H]1n1cnc2c(=O)[nH]c(N)nc21 [entecavir] |  |  |  |  |  | cross-resistance |
|  | Cc1cn([C@@H]2C[C@@H](O)[C@H](CO)O2)c(=O)[nH]c1=O [telbivudine] |  |  |  |  |  | cross-resistance |
| > 32 | C=C1C[C@@H](n2cnc3c(=O)[nH]c(N)nc32)O[C@H]1CO [Compound 75, 9-(2,3-dideoxyl-3-methylidene-β-L-pentofuranosyl)guanine] |  |  | > 32 |  |  |  |
|  | C=C1[C@H](CO)O[C@H](n2ccc(N)nc2=O)[C@H]1C [Compound 57, 4-Amino-1-[(2S,3S,5R)-5-(hydroxymethyl)-3-methyl-4-methylenetetrahydrofuran-2-yl]pyrimidin-2(1H)-one] |  | > 300 |  |  |  |  |

| SMILES | IC50 (HIV-1IIIB) [µM] | IC50 (HBV) [µM] | CC50 at 24 h [1] [µM] | CC50 at 6 days [2] [µM] | loss of susceptibility [3] | activity loss (mutation rtA181V) | cross-resistance of lamivudine-resistant mutants [4] |
| --- | --- | --- | --- | --- | --- | --- | --- |
| C=C1C[C@@H](n2cc(C)c(=O)[nH]c2=O)O[C@H]1CO [Compound 26, 1-(2,3-dideoxy-3-methylidene-β-L-pentofuranosyl)thymine] | > 32 | < 1 | > 300 | > 32 |  |  |  |
| C=C1C[C@@H](n2ccc(=O)[nH]c2=O)O[C@H]1CO [Compound 8, 1-(2,3-dideoxyl-3-methylidene-β-L-pentofuranosyl)uracil] | > 32 | > 32 | > 32 | > 32 |  |  |  |
| C=C1C[C@@H](n2ccc(N)nc2=O)O[C@H]1CO [Compound 10, 1-(2,3-dideoxyl-3-methylidene-β-L-pentofuranosyl)cytosine] | 1 to 32 | < 1 | > 300 | > 32 |  |  |  |
